What was measured:
[1] = system: ulcers with acetyl salicylic acid; test: activity toward ulcers with acetyl salicylic acid quantified in accordance with the Pfeiffer scale, male rats; format: in vivo; conditions: orally, acute
gastric secretion = gastric secretion by ligature of the pylorus using Shay's technique, male Sprague-Dawley rats; format: in vivo; conditions: rat, intraduodenal route, 50 mg/kg, acute
Experimental: 1. […] Acute treatment by intraduodenal route in a dose of 50 mg/kg.

| Compound | % Inhibition of the ulcer lesions ([1]; dose 40 mg/kg) | % Variation: decrease of the volume secreted (gastric secretion) | % Variation: increase of the intragastric pH (gastric secretion) | % Inhibition of the ulcer lesions ([1]; dose 50 mg/kg) |
| --- | --- | --- | --- | --- |
| CNC(=NCCSCc1nc[nH]c1C)NC#N [Cimetidine, N-Cyano-N'-methyl-N''-[2-[[(5-methyl-1H-imidazol-4-yl)methyl]thio]ethyl]guanidine, reference compound] | 46% | 47% | 90% |  |
| CN(C(=O)CSC1=NCCN1)c1ccc(Cl)cc1Cc1ccccc1 [Product 12] | 40% |  |  |  |
| CN(C(=O)CSc1ncc[nH]1)c1ccc(Cl)cc1C(=O)c1ccccc1Cl [Product 7] | 46% | 70% | 118% |  |
| CN(C(=O)CSC(=N)N)c1ccc(Cl)cc1C(=O)c1ccccc1Cl [Product 16] |  | 79% | 153% | 32% |
| N-methyl 2'-(orthochloro-α-hydroxybenzyl)-4'-chloro 2-[2-(Δ2-imidazolinyl)thio]acetanilide [Product 11] |  | 76% | 267% |  |
| CN(C(=O)CSc1ncc[nH]1)c1ccc(Cl)cc1C(=O)c1ccccc1 [Product 15] |  | 50% | 181% | 35% |
| N-methyl 2-[2-(Δ2-imidazolinyl)thio]2'-benzoyl-4'-chloroacetanilide hydrochloride [Product 2] | 34% | 76% | 158% |  |

From US5025015A, “Thioformamidines, and use as medicaments” (Pierre Fabre Medicament, priority 1988, dated 1991)
